Data on eight molecules can be found in ChEMBL document CHEMBL1201862, “PubChem BioAssay data set” (2004).

Among the test systems are 786-0; DU-145; HCC 2998; HL-60; HT-29; MDA-MB-231; MDA-MB-435; Malme-3M; OVCAR-4; SF-268; SN12C; SNB-75; SR; T47D; TK-10; U-251; UO-31; HOP-62; SF-295; SK-OV-3.
Holding throughout (assay): NCI anticancer screen, dose series, 48 h

The structures appear in SMILES notation.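 These data come from cells grown in 96-well plates and exposed to compound for 48 hours at five concentrations. GI50 is the concentration that inhibits growth by half.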 Activity calls are given as the source filed them. Rule as the data show it: active = GI50 up to about 1.1 µM and inactive = higher. Bounds are passed on as bounds.

`N#CC1C=Cc2ccccc2N1C(=O)Oc1ccccc1` (stereo not given): the GI50 is 56.5 µM (inactive) in the experiment on 786-0; 31.9 µM (inactive) in the experiment with DU-145; 40.1 µM (inactive) in the experiment with HCC 2998; 19.3 µM (inactive) in the experiment on HL-60; 44.3 µM (inactive) with HT-29; 68.2 µM (inactive) in the experiment on MDA-MB-231. Further, the GI50 in the experiment on MDA-MB-435 was 23.7 µM (inactive); with Malme-3M, 48.4 µM (inactive); with OVCAR-4, 40.6 µM (inactive); in the experiment with SF-268 it was 55.1 µM (inactive); in the experiment with SN12C it was 45.9 µM (inactive); with SNB-75, 93.5 µM (inactive). Also, the GI50 in the experiment on SR is 33.8 µM (inactive); in the experiment on T47D it was 28.2 µM (inactive); in the experiment with TK-10 it was 44.8 µM (inactive); in the experiment on U-251 it was 44.1 µM (inactive); in the experiment with UO-31 it was 41.7 µM (inactive).
Regarding `Nc1nc(N)c2nc(CNc3ccc(C(=O)O)cc3)[nH]c2n1`, the GI50 in the experiment on 786-0 was > 100 µM (inactive); in the experiment on DU-145 it was > 100 µM (inactive); with HCC 2998, 27.9 µM (inactive); in the experiment on HL-60 it was > 100 µM (inactive); in the experiment with HOP-62, > 100 µM (inactive); in the experiment on HT-29, > 100 µM (inactive). Further, the GI50 in the experiment with MDA-MB-231, with MDA-MB-435, in the experiment with Malme-3M, with OVCAR-4, in the experiment on SF-268 and with SF-295 was > 100 µM (inactive) each time. In addition, the GI50 in the experiment with SK-OV-3, with SN12C, in the experiment on SNB-75, with SR, in the experiment on T47D and with TK-10 was > 100 µM (inactive) in each case. The GI50 in the experiment with U-251 and in the experiment with UO-31 was > 100 µM (inactive) throughout.
On to `COc1cc(C(=O)OC2CC34CCNC35CC(OC5(OC)C2O)c2cc3c(cc24)OCO3)ccc1O` (stereo not given), for which the GI50 in the experiment with 786-0, in the experiment with DU-145, in the experiment with HCC 2998, in the experiment on HL-60, in the experiment on HOP-62 and in the experiment on HT-29 was > 100 µM (inactive) each time. The GI50 was > 100 µM (inactive) in the experiment on MDA-MB-231; > 100 µM (inactive) with MDA-MB-435; 8.11 µM (inactive) with Malme-3M; > 100 µM (inactive) with OVCAR-4; > 100 µM (inactive) with SF-268; > 100 µM (inactive) in the experiment with SF-295. Also, the GI50 is > 100 µM (inactive) with SK-OV-3; > 100 µM (inactive) in the experiment with SN12C; 46.8 µM (inactive) in the experiment on SNB-75; > 100 µM (inactive) in the experiment on SR; > 100 µM (inactive) in the experiment on T47D; > 100 µM (inactive) with TK-10. In the experiment on U-251, the GI50 is > 100 µM (inactive).
For the molecule `O=C1c2cscc2C(=O)c2c(OCc3ccccc3)ccc(OCc3ccccc3)c21`, the GI50 with 786-0 was 58.2 µM (inactive); with DU-145, > 100 µM (inactive); in the experiment on HCC 2998 it was 53.1 µM (inactive); in the experiment with HL-60 it was 96.4 µM (inactive); in the experiment on HOP-62, > 100 µM (inactive); with HT-29, 58.1 µM (inactive). The GI50 with MDA-MB-231, in the experiment on MDA-MB-435, with Malme-3M, in the experiment with OVCAR-4, with SF-268 and in the experiment on SF-295 was > 100 µM (inactive) throughout. Besides, the GI50 is > 100 µM (inactive) in the experiment on SK-OV-3; > 100 µM (inactive) with SN12C; 56 µM (inactive) with SNB-75; 54 µM (inactive) in the experiment on SR; > 100 µM (inactive) in the experiment on T47D; > 100 µM (inactive) in the experiment on TK-10. For the same molecule, the GI50 with UO-31 was 62.5 µM (inactive).
With `CCCCCC(/C=N/Nc1ccccc1)C(O)(C(F)(F)F)C(F)(F)F` (stereo not given), the GI50 in the experiment with 786-0, in the experiment with DU-145, in the experiment with HCC 2998, with HL-60, in the experiment on HOP-62 and in the experiment with HT-29 was > 100 µM (inactive) throughout. Further, the GI50 in the experiment on MDA-MB-231, in the experiment on MDA-MB-435, in the experiment with Malme-3M, in the experiment on OVCAR-4, in the experiment on SF-268 and with SF-295 was > 100 µM (inactive) throughout. Besides, the GI50 in the experiment on SK-OV-3, in the experiment with SN12C, in the experiment with SNB-75, in the experiment with SR, in the experiment with T47D and in the experiment with U-251 was > 100 µM (inactive) throughout. In addition, the GI50 with UO-31 was > 100 µM (inactive).
With `O=C1CC(=O)NC(NNS(=O)(=O)c2ccccc2)=N1`, the GI50 in the experiment with 786-0, in the experiment with DU-145, in the experiment with HCC 2998, in the experiment with HOP-62, with HT-29 and with MDA-MB-231 was > 100 µM (inactive) throughout. Also, the GI50 in the experiment on MDA-MB-435, in the experiment with Malme-3M, in the experiment with OVCAR-4, in the experiment on SF-268, in the experiment on SF-295 and in the experiment on SK-OV-3 was > 100 µM (inactive) each time. The GI50 in the experiment on SN12C, in the experiment on SNB-75, with SR, in the experiment on T47D, in the experiment with TK-10 and in the experiment with U-251 was > 100 µM (inactive) in each case. Also, the GI50 in the experiment with UO-31 was > 100 µM (inactive).
Turning to `N#CCC(=O)Nn1c(CC#N)nnc1Cc1ccccc1`, the GI50 in the experiment with 786-0, in the experiment on DU-145, in the experiment on HCC 2998, in the experiment on HL-60, in the experiment with HOP-62 and with HT-29 was > 100 µM (inactive) throughout. Also, the GI50 in the experiment on MDA-MB-231 was > 100 µM (inactive); in the experiment on MDA-MB-435, > 100 µM (inactive); in the experiment on Malme-3M, > 100 µM (inactive); with SF-268, > 100 µM (inactive); in the experiment with SF-295, > 100 µM (inactive); in the experiment on SN12C, > 10 µM (inactive). Also, the GI50 in the experiment with SNB-75, in the experiment on SR, in the experiment with T47D, in the experiment on TK-10, in the experiment with U-251 and with UO-31 was > 100 µM (inactive) throughout.
As for `O=C(O)CN(CC(=O)O)Cc1ccn(-c2cccc(-n3ccc(CN(CC(=O)O)CC(=O)O)n3)n2)n1`, the GI50 in the experiment on 786-0 is > 100 µM (inactive); with DU-145 it was > 100 µM (inactive); with HCC 2998, > 100 µM (inactive); in the experiment on HL-60 it was < 0.01 µM (active); in the experiment on HOP-62, > 100 µM (inactive); in the experiment on HT-29, > 100 µM (inactive). Moreover, the GI50 in the experiment with MDA-MB-231 was > 100 µM (inactive); in the experiment with MDA-MB-435, 3.53 µM (inactive); in the experiment with Malme-3M it was > 100 µM (inactive); with SF-268 it was > 100 µM (inactive); in the experiment with SF-295, > 100 µM (inactive); in the experiment on SK-OV-3 it was > 100 µM (inactive). Further, the GI50 in the experiment with SN12C is > 100 µM (inactive); in the experiment on SNB-75 it was > 100 µM (inactive); in the experiment with SR, > 100 µM (inactive); in the experiment on T47D, > 100 µM (inactive); in the experiment on TK-10, > 100 µM (inactive); in the experiment on U-251, 21.1 µM (inactive). For the same molecule, the GI50 with UO-31 is 93.8 µM (inactive).
